Results published in patent US8071612B2, “6-alkenyl and 6-phenylalkyl substituted 2-quinolinones and 2-quinoxalinones as poly(ADP-ribose) polymerase inhibitors” (Janssen Pharmaceutica, NV, priority 2004, dated 2011).

Biological target: T1, PARP-1 enzyme (Homo sapiens, UniProt P09874)
T1 construct: made in house
Assay: In vitro Scintillation Proximity Assay (SPA) for PARP-1 inhibitory activity
Format: biochemical
Settings: nicked DNA activated PARP-1, [3H]-NAD+, biotinylated histones; read-out: In vitro SPA pIC50 (converted)
Procedure: Compounds of the present invention were tested in an in vitro assay based on SPA technology (proprietary to Amersham Pharmacia Biotech).
In principle, the assay relies upon the well established SPA technology for the detection of poly(ADP-ribosyl)ation of biotinylated target proteins, i.e histones. This ribosylation is induced using nicked DNA activated PARP-1 enzyme and [^3H]-nicotinamide adenine dinucleotide ([^3H]-NAD^+) as ADP-ribosyl donor.
As inducer of PARP-1 enzyme activity, nicked DNA was prepared. For this, 25 mg of DNA (supplier: Sigma) was dissolved in 25 ml DNAse buffer (10 mM Tris-HCl, pH 7.4; 0.5 mg/ml Bovine Serum Albumine (BSA); 5 mM MgCl2.6H2O and 1 mM KCl) to which 50 μl DNAse solution (1 mg/ml in 0.15 M NaCl) was added. After an incubation of 90 min. at 37° C., the reaction was terminated by adding 1.45 g NaCl, followed by a further incubation at 58° C. for 15 min. The reaction mixture was cooled on ice and dialysed at 4° C. for respectively 1.5 and 2 hours against 1.5 l of 0.2 M KCl, and twice against 1.5 l of 0.01 M KCl for 1.5 and 2 h respectively. The mixture was aliquoted and stored at −20° C. Histones (1 mg/ml, type II-A, supplier: Sigma) were biotinylated using the biotinylation kit of Amersham and stored aliquoted at −20° C. A stock solution of 100 mg/ml SPA poly(vinyl toluene) (PVT) beads (supplier: Amersham) was made in PBS. A stock solution of [^3]H-NAD^+ was made by adding 120 μl of [^3H]-NAD^+ (0.1 mCi/ml, supplier: NEN) to 6 ml incubation buffer (50 mM Tris/HCl, pH 8; 0.2 mM DTT; 4 mM MgCl2). A solution of 4 mM NAD^+ (supplier: Roche) was made in incubation buffer (from a 100 mM stock solution in water stored at −20° C.). The PARP-1 enzyme was produced using art known techniques, i.e. cloning and expression of the protein starting from human liver cDNA. Information concerning the used protein sequence of the PARP-1 enzyme including literature references can be found in the Swiss-Prot database under primary accession number P09874. Biotinylated histones and PVT-SPA beads were mixed and pre-incubated for 30 min. at room temperature. PARP-1 enzyme (concentration was lot dependent) was mixed with the nicked DNA and the mixture was pre-incubated for 30 min. at 4° C. Equal parts of this histones/PVT-SPA beads solution and PARP-1 enzyme/DNA solution were mixed and 75 μl of this mixture together with 1 μl of compound in DMSO and 25 μl of [^3H]-NAD^+ was added per well into a 96-well microtiterplate. The final concentrations in the incubation mixture were 2 μg/ml for the biotinylated histones, 2 mg/ml for the PVT-SPA beads, 2 μg/ml for the nicked DNA and between 5-10 μg/ml for the PARP-1 enzyme. After incubation of the mixture for 15 min. at room temperature, the reaction was terminated by adding 100 μl of 4 mM NAD^+ in incubation buffer (final concentration 2 mM) and plates were mixed.
The beads were allowed to sediment for at least 15 min. and plates transferred to a TopCountNXT™ (Packard) for scintillation counting, values were expressed as counts per minute (cpm). For each experiment, controls (containing PARP-1 enzyme and DMSO without compound), a blank incubation (containing DMSO but no PARP-1 enzyme or compound) and samples (containing PARP-1 enzyme and compound dissolved in DMSO) were run in parallel. All compounds tested were dissolved and eventually further diluted in DMSO. In first instance, compounds were tested at a concentration of 10^−5 M or 10^−6M. […] In each test, the blank value was subtracted from both the control and the sample values. The control sample represented maximal PARP-1 enzyme activity. For each sample, the amount of cpm was expressed as a percentage of the mean cpm value of the controls. When appropriate, IC50-values (concentration of the drug, needed to reduce the PARP-1 enzyme activity to 50% of the control) were computed using linear interpolation between the experimental points just above and below the 50% level. […]

T1 sequence (P09874 whole entry): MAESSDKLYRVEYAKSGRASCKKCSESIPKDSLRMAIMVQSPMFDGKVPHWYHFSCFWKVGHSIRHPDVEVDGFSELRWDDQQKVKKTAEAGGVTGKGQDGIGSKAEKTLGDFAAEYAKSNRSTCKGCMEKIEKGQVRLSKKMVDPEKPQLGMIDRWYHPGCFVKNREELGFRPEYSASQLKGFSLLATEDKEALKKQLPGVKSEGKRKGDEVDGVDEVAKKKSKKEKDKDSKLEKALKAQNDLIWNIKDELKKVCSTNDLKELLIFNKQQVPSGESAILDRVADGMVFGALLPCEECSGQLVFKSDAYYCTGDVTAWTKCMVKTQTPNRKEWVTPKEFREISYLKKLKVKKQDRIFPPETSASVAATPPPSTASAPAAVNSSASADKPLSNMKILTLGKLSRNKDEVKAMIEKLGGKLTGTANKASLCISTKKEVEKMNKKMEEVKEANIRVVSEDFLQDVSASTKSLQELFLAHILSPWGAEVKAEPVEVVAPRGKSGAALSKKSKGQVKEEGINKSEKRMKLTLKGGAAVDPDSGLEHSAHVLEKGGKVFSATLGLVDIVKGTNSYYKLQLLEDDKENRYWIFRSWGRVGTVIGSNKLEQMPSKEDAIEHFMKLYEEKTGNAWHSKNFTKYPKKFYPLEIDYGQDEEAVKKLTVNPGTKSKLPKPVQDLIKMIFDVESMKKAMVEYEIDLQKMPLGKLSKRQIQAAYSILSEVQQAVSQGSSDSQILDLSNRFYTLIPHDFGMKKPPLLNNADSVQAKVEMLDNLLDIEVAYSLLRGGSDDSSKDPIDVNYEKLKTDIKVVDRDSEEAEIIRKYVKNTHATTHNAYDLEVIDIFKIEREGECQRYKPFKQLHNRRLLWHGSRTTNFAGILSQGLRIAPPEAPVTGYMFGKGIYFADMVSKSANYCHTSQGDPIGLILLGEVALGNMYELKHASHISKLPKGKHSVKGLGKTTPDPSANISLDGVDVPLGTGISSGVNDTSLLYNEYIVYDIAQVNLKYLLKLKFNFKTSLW

SMILES	IC50 [µM]
CCc1cc2cc(C(c3ccc4c(c3)OCCO4)N3CCC(c4n[nH]c5cc(F)ccc45)CC3)ccc2[nH]c1=O (centres unmarked) [Compound 46]	0.405
CCc1nc2cc(CC(=O)c3ccccc3)ccc2[nH]c1=O [Compound 116]	0.564
CCc1cc2cc(C(c3ccc(C)cc3C)N3CCC(NCCOC)CC3)ccc2[nH]c1=O (centres unmarked) [Compound 64]	0.532
CCc1cc2cc(C(NCCCN3CCCCC3)c3ccc4c(c3)OCCO4)ccc2[nH]c1=O (centres unmarked) [Compound 52]	0.0546
CCc1cc2cc(C(c3ccc(C(F)(F)F)cc3)N3CCC(NCCOC)CC3)ccc2[nH]c1=O (centres unmarked) [Compound 70]	0.762
CCc1cc2cc(C(c3ccc(Cl)c(F)c3)N3CCC(NCCOC)CC3)ccc2[nH]c1=O (centres unmarked) [Compound 63]	0.361
CCc1cc2cc(C(c3ccc4c(c3)OCCO4)N3CCN(CCN4CCCCCC4)CC3)ccc2[nH]c1=O (centres unmarked) [Compound 43]	0.0212
CCc1cc2cc(C(c3ccc(Cl)c(Cl)c3)N3CCC(NCCOC)CC3)ccc2[nH]c1=O (centres unmarked) [Compound 83]	0.498
CCc1cc2cc(C(c3cccc(F)c3)N3CCC(NCCOC)CC3)ccc2[nH]c1=O (centres unmarked) [Compound 59]	0.217
CCc1cc2cc(/C(=C\CN(C)C)c3ccc4c(c3)OCCO4)ccc2[nH]c1=O [Compound 136]	0.137
CCc1nc2cc(C(NCCCN(C)Cc3ccccc3)c3ccccc3)ccc2[nH]c1=O (centres unmarked) [Compound 56]	0.511
O=c1[nH]c2ccc(C(NCCN3CCC(c4n[nH]c5cc(F)ccc45)CC3)c3ccc4c(c3)OCCO4)cc2c2ccccc12 (centres unmarked) [Compound 45]	0.0456
CCc1cc2cc(C(c3ccccc3C)N3CCC(NCCOC)CC3)ccc2[nH]c1=O (centres unmarked) [Compound 82]	0.356
CCc1cc2cc(C(=C3CCN(CCCn4c(=O)[nH]c5ccccc54)CC3)c3ccc4c(c3)OCCO4)ccc2[nH]c1=O [Compound 141]	0.121
CCc1cc2cc(C(c3ccccc3F)N3CCC(NCCOC)CC3)ccc2[nH]c1=O (centres unmarked) [Compound 62]	0.312
O=CNC(c1cccc(C(F)(F)F)c1)c1ccc2[nH]c(=O)c3ccccc3c2c1 (centres unmarked) [Compound 97]	0.031
CCc1cc2cc(C(=C3CCN(CC(O)COc4ccc(F)cc4)CC3)c3ccc4c(c3)OCCO4)ccc2[nH]c1=O (centres unmarked) [Compound 143]	0.157
CCc1cc2cc(C(c3ccc(F)cc3)N3CCC(NCCOC)CC3)ccc2[nH]c1=O (centres unmarked) [Compound 67]	0.208
CCc1nc2cc(CC(c3ccc(Cl)cc3)N3CCC(O)(c4ccccc4)CC3)ccc2[nH]c1=O (centres unmarked) [Compound 121]	0.83

SMILES	IC50 [µM]
CCc1cc2cc(C(c3ccc(C(F)(F)F)cc3F)N3CCC(NCCOC)CC3)ccc2[nH]c1=O (centres unmarked) [Compound 35]	0.802
CCc1cc2cc(C(c3ccccc3Cl)N3CCC(NCCOC)CC3)ccc2[nH]c1=O (centres unmarked) [Compound 74]	0.211
CCc1cc2cc(C(c3ccc4c(c3)OCCO4)C3CC[N+](C/C=C/c4ccccc4)(C/C=C/c4ccccc4)CC3)ccc2[nH]c1=O (centres unmarked) [Compound 15]	0.119
CCc1cc2cc(/C(=C/CN(C)C)c3ccc4c(c3)OCCO4)ccc2[nH]c1=O [Compound 138]	0.063
CCc1cc2cc(C(c3cccc4ccccc34)N3CCC(NCCOC)CC3)ccc2[nH]c1=O (centres unmarked) [Compound 76]	0.411
CCc1cc2cc(C(c3ccc(Cl)cc3)N3CCN(C)CC3)ccc2[nH]c1=O (centres unmarked) [Compound 60]	0.296
CCc1cc2cc(C(=C3CCN(C/C=C/c4ccccc4)CC3)c3ccc4c(c3)OCCO4)ccc2[nH]c1=O [Compound 142]	0.322
CCc1cc2cc(C(c3ccc(OCCCN(C)C)cc3)N3CCC(NCCOC)CC3)ccc2[nH]c1=O (centres unmarked) [Compound 36]	0.299
CCc1cc2cc(C(c3cccc(OC(F)(F)F)c3)N3CCC(NCCOC)CC3)ccc2[nH]c1=O (centres unmarked) [Compound 34]	0.525
CCc1cc2cc(/C(=C\CN(C)C)c3ccc(Cl)cc3)ccc2[nH]c1=O [Compound 137]	0.428
CCc1cc2cc(C(OCCN(C)C)c3ccc4c(c3)OCCO4)ccc2[nH]c1=O (centres unmarked) [Compound 55]	0.0184
CCc1cc2cc(C(c3c(Cl)cccc3Cl)N3CCC(NCCOC)CC3)ccc2[nH]c1=O (centres unmarked) [Compound 73]	0.124
CCc1cc2cc(C(c3cccc(Cl)c3)N3CCN(C)CC3)ccc2[nH]c1=O (centres unmarked) [Compound 75]	0.339
CCc1cc2cc(C(c3cc(C(F)(F)F)ccc3Cl)N3CCC(NCCOC)CC3)ccc2[nH]c1=O (centres unmarked) [Compound 69]	0.456
CCc1cc2cc(C(c3ccc4ccccc4c3)N3CCC(NCCOC)CC3)ccc2[nH]c1=O (centres unmarked) [Compound 61]	0.276
CCc1nc2cc(C(NCCCN3CCCCC3)c3ccccc3)ccc2[nH]c1=O (centres unmarked) [Compound 51]	0.459
CCc1nc2cc(CCC(c3ccc(Cl)cc3)n3ccnc3)ccc2[nH]c1=O (centres unmarked) [Compound 118]	0.869
O=c1[nH]c2ccc(C(NCCN3CCC(c4n[nH]c5cc(F)ccc45)CC3)c3cccc(C(F)(F)F)c3)cc2c2ccccc12 (centres unmarked) [Compound 47]	0.516
CCc1nc2cc(CC(c3ccccc3)n3ccnc3)ccc2[nH]c1=O (centres unmarked) [Compound 119]	0.198

SMILES	IC50 [µM]
CCc1nc2cc(C(NCCN3CCC(C(=O)c4ccc(F)cc4)CC3)c3ccccc3)ccc2[nH]c1=O (centres unmarked) [Compound 50]	0.678
CCc1cc2cc(/C(=C\CN3CCCCC3)c3ccc4c(c3)OCCO4)ccc2[nH]c1=O [Compound 130]	0.188
CCc1cc2cc(/C(=C/CN3CCCCC3)c3ccc4c(c3)OCCO4)ccc2[nH]c1=O [Compound 129]	0.0571
CCc1cc2cc(C(c3ccc4c(c3)OCCO4)N3CCC(CCN4CCCCC4)CC3)ccc2[nH]c1=O (centres unmarked) [Compound 31]	0.0213
COCCNC1CCN(C(c2cccc(C(F)(F)F)c2)c2ccc3[nH]c(=O)c4ccccc4c3c2)CC1 (centres unmarked) [Compound 48]	0.19
CCc1cc2cc(C(NC3CCCN(Cc4ccccc4)C3)c3ccc4c(c3)OCCO4)ccc2[nH]c1=O (centres unmarked) [Compound 53]	0.152
CCc1cc2cc(C(c3ccc4c(c3)OCCO4)N3CCN(CC4CCCCC4)CC3)ccc2[nH]c1=O (centres unmarked) [Compound 41]	0.122
CCc1nc2cc(CC(c3ccc(Cl)cc3)N3CCN(C4CCCCC4)CC3)ccc2[nH]c1=O (centres unmarked) [Compound 117]	0.71
CCc1cc2cc(C(CCN(C)C)c3ccc4c(c3)OCCO4)ccc2[nH]c1=O (centres unmarked) [Compound 90]	0.00843
CCc1nc2cc(C(c3ccccc3)N3CCC(=O)CC3)ccc2[nH]c1=O (centres unmarked) [Compound 84]	0.318
CCc1nc2cc(C(c3ccccc3)N3CCC(NCCOC)CC3)ccc2[nH]c1=O (centres unmarked) [Compound 58]	0.582
CCc1cc2cc(C(c3ccc(Cl)cc3Cl)N3CCC(NCCOC)CC3)ccc2[nH]c1=O (centres unmarked) [Compound 66]	0.417
CCc1cc2cc(C(c3ccc4c(c3)OCCO4)N3CCC(NCCOC)CC3)ccc2[nH]c1=O (centres unmarked) [Compound 33]	0.0257
CCc1nc2ccc(CC(c3ccc(Cl)cc3)N3CCC(C(N)=O)CC3)cc2[nH]c1=O (centres unmarked) [Compound 120]	0.553
CCc1cc2cc(C(c3ccc4c(c3)OCO4)N3CCC(NCCOC)CC3)ccc2[nH]c1=O (centres unmarked) [Compound 54]	0.101
CCc1cc2cc(C(c3ccc(F)cc3F)N3CCC(NCCOC)CC3)ccc2[nH]c1=O (centres unmarked) [Compound 68]	0.373
CCc1nc2cc(CC(O)c3ccccc3)ccc2[nH]c1=O (centres unmarked) [Compound 108]	0.406
CCc1cc2cc(C(c3ccc4c(c3)OCO4)n3nc(C4CCNCC4)c4ccc(F)cc43)ccc2[nH]c1=O (centres unmarked) [Compound 42]	0.948
